From the NIST ThermoML archive (doi:10.1016/j.jct.2017.05.028)

Assay: wn = mass fraction of the nth substance listed
Details: 101 kPa, Liquid, digital holographic interferometry

CCCCO [butan-1-ol] + CCCCCCC
binary diffusion coefficient [m2/s]
Details	w1 = 0.05	w1 = 0.15	w1 = 0.25	w1 = 0.35	w1 = 0.45	w1 = 0.55	w1 = 0.65	w1 = 0.75	w1 = 0.85	w1 = 0.95
288.15 K	1.86e-09	1.39e-09	1.04e-09	8.03e-10	6.87e-10	6.25e-10	6.28e-10	6.75e-10	7.03e-10	7.54e-10
298.15 K	2.09e-09	1.63e-09	1.26e-09	1.06e-09	9.24e-10	8.84e-10	8.71e-10	9.06e-10	9.54e-10	1.01e-09
308.15 K	2.4e-09	1.92e-09	1.57e-09	1.33e-09	1.19e-09	1.13e-09	1.11e-09	1.13e-09	1.2e-09	1.26e-09
318.15 K	2.73e-09	2.24e-09	1.87e-09	1.6e-09	1.49e-09	1.42e-09	1.4e-09	1.44e-09	1.48e-09	1.54e-09

CCCCCO [pentan-1-ol] + CCCCCCC
binary diffusion coefficient [m2/s]
Details	w1 = 0.05	w1 = 0.15	w1 = 0.25	w1 = 0.35	w1 = 0.45	w1 = 0.55	w1 = 0.65	w1 = 0.75	w1 = 0.85	w1 = 0.95
288.15 K	1.65e-09	1.19e-09	8.88e-10	7.12e-10	5.95e-10	5.43e-10	5.49e-10	5.77e-10	6.09e-10	6.5e-10
298.15 K	1.88e-09	1.43e-09	1.13e-09	9.36e-10	8.38e-10	7.8e-10	7.86e-10	8.09e-10	8.4e-10	8.76e-10
308.15 K	2.11e-09	1.69e-09	1.38e-09	1.18e-09	1.07e-09	1.02e-09	9.99e-10	1.04e-09	1.07e-09	1.12e-09
318.15 K	2.42e-09	1.96e-09	1.64e-09	1.42e-09	1.33e-09	1.29e-09	1.28e-09	1.31e-09	1.36e-09	1.38e-09
